Measured values as given in paper PMC2588526 (Nucleic Acids Research, 2008).
Blank lines part the entries; values can stand above or below the molecule they belong to.

Tests used:
[1] = molecular target: T1, TvTgs (Trichomonas vaginalis, UniProt A2DM16); test: radiometric 3H methyl transfer, DEAE filter; assay type: biochemical
T1 sequence (A2DM16 1-280): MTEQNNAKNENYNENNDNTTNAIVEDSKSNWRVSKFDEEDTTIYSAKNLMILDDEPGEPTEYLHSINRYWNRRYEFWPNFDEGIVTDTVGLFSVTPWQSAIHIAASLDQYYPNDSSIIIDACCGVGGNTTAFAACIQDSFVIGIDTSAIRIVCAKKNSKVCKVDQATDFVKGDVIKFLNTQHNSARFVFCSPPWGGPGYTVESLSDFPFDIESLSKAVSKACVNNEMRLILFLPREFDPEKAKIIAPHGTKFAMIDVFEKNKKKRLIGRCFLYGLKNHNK

[2] = molecular target: T2, GlTgs (Giardia duodenalis, UniProt A8BW33); test: 3H methyl transfer, PEI-cellulose TLC; assay type: biochemical; conditions: 0.1 mM m7GDP, 5 μM [methyl-3H]AdoMet, 37 °C; single methylation to DMG
T2 sequence (A8BW33 1-258): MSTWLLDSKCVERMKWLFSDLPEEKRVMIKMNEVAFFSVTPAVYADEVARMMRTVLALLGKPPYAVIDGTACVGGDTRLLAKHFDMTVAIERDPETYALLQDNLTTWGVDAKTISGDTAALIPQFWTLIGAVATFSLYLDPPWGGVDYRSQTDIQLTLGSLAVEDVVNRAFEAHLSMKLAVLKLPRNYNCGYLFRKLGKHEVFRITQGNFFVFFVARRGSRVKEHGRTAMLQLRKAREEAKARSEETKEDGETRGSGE

[3] = substrate: C[n+]1cn([C@@H]2O[C@H](COP(=O)(O)OP(=O)(O)O)[C@@H](O)[C@H]2O)c2nc(N)[nH]c(=O)c21; test: radiometric 3H methyl transfer, DEAE filter; assay type: biochemical, Trichomonas vaginalis; conditions: [methyl-3H]AdoMet co-substrate, pH 7.5, 37 °C
[4] = substrate: C[n+]1cn([C@@H]2O[C@H](COP(=O)(O)OP(=O)(O)OP(=O)(O)O)[C@@H](O)[C@H]2O)c2nc(N)[nH]c(=O)c21; test: radiometric 3H methyl transfer, DEAE filter; assay type: biochemical, Trichomonas vaginalis; conditions: [methyl-3H]AdoMet co-substrate, pH 7.5, 37 °C

IC50 [1]: ~250 µM
Molecule: Nc1ncnc2c1ncn2[C@@H]1O[C@H](CSCC[C@H](N)C(=O)O)[C@@H](O)[C@H]1O [AdoHcy]

Molecule: C[n+]1cn([C@@H]2O[C@H](COP(=O)(O)OP(=O)(O)O)[C@@H](O)[C@H]2O)c2nc(N)[nH]c(=O)c21 [m^7GDP]
3H methyl transfer, PEI-cellulose TLC [2]: TvTgs (Tv), GlTgs (Gl) and SpTgs (Sp) were compared side by side

B1: TvTgs (Trichomonas vaginalis G3) (protein)
chain: T1 sequence (A2DM16 1-280)
Km [3]: 250 +/– 30.7 μM
Km [4]: 1.59 +/– 0.205 mM
